system: P-388 leukemic cells; experiment: Antitumor activity against mouse leukemia P-388, increase in life span (ILS); format: in vivo; parameters: dose or concentration left out as unconfirmed; details: P388, ip, 120 h, Table 2, i.p., once a day for 5 days, BDF1 mice
Protocol: Antitumor activity against mouse leukemia P-388 carcinoma is shown in the ensuring examples, according to the following list of specifications:
2. Animal: BDF1 mice, age 5 weeks, male, Charles River Inc., 5 mice in an experimental group at 7 control mice.
3. Tumor cells: P-388 leukemic cells; 1×10^6 /0.2 ml are inoculated intraperitoneally in BDF1 mice of the experimental group.
4. Preparation of samples and administration of drugs:
Samples are suspended in Tris-HCl saline solution by sonification. 0.1 ml/10g body weight is administered.
Administration: starting one day after inoculation of tumor cells, once a day for 5 days intraperiotoneally.
5. Increase in life span (ILS) is calculated by the following equation: [formula]
Average survival date in control group is 7.86 days (7.57-7.93 days).

| Structure (SMILES) | ILS [%] |
| --- | --- |
| CCCCCCCCCCCCCCCCOCC(COP(=O)(O)OC[C@H]1O[C@@H](n2cc(F)c(N)nc2=O)[C@@H](O)[C@@H]1O)OCCCCCCCCCCCCCCCC (stereo partly drawn) [cetyl cetyl AraFC] | 152 |
| CCCCCCCCCCCCCCCCOCC(COP(=O)(O)OC[C@H]1O[C@@H](n2cc(F)c(=O)[nH]c2=O)[C@H](O)[C@@H]1O)OCCCCCCCCCCCCCCCC (stereo partly drawn) [cetyl cetyl FUR] | 127 |
| CCCCCCCCCCCCCCCCOCC(COP(=O)(O)OCC1=C[C@@H](n2cnc3c(N)ncnc32)[C@H](O)[C@@H]1O)OCCCCCCCCCCCCCCCC (stereo partly drawn) [cetyl cetyl NepA] | 34.9 |
| CCCCCCCC/C=C\CCCCCCCCOCC(COP(=O)(O)OC[C@H]1O[C@@H](n2cc(F)c(N)nc2=O)[C@@H](O)[C@@H]1O)OCCCCCCCC/C=C\CCCCCCCC (stereo partly drawn) [oleyl oleeyl AraFC] | 148 |
| CCCCCCCC/C=C\CCCCCCCCOCC(COP(=O)(O)OC[C@H]1O[C@@H](n2cc(F)c(=O)[nH]c2=O)[C@H](O)[C@@H]1O)OCCCCCCCC/C=C\CCCCCCCC (stereo partly drawn) [oleyl oleyl FUR] | 76 |
| CCCCCCCC/C=C\CCCCCCCCOCC(COP(=O)(O)OCC1=C[C@@H](n2cnc3c(N)ncnc32)[C@H](O)[C@@H]1O)OCCCCCCCC/C=C\CCCCCCCC (stereo partly drawn) [oleyl oleyl NepA] | 26 |
| CCCCCCCCCCCCCCCCCCOCC(COP(=O)(O)OC[C@H]1O[C@@H](n2cc(F)c(N)nc2=O)[C@@H](O)[C@@H]1O)OCCCCCCCCCCCCCCCCCC (stereo partly drawn) [stearyl stearyl AraFC] | 61 |
| CCCCCCCCCCCCCCCCCCOCC(COP(=O)(O)OC[C@H]1O[C@@H](n2cc(F)c(=O)[nH]c2=O)[C@H](O)[C@@H]1O)OCCCCCCCCCCCCCCCCCC (stereo partly drawn) [stearyl stearyl FUR] | 31 |
| CCCCCCCCCCCCCCCCCCOCC(COP(=O)(O)OCC1=C[C@@H](n2cnc3c(N)ncnc32)[C@H](O)[C@@H]1O)OCCCCCCCCCCCCCCCCCC (stereo partly drawn) [stearyl stearyl NepA] | 31 |

Reference: US5051499A, “Novel nucleoside-phospholipid conjugate” (Toyo Jozo Kabushiki Kaisha, priority 1986, dated 1991)
